What was measured:
[1] = tested on: hypertensive subjects; assay: Example 4 dose-ranging study: automated office blood pressure (AOBP); format: in vivo, human; conditions: for Change in AOBP BPdias, Mean (sem) / Change in AOBP BPsys, Mean (sem): Week 8, Full Analysis Set
Protocol: A randomized, double-blinded, placebo-controlled, dose-ranging, multicenter study was conducted to evaluate the effect of orally administered Compound A HBr on blood pressure for the treatment of hypertension in male and female subjects ≥18 years of age.
The study consists of two parts. For enrollment into Part 1 of the study, a subject's value of plasma renin activity (PRA) must be ≤1 ng/mL/h based on morning measurement. If the value of PRA >1 ng/mL/h based on morning measurement, then subjects may be eligible to enter Part 2 of the study.
For Part 1, 163 enrolled subjects ≥18 years of age were randomized into 6 equal treatment groups (1:1:1:1:1:1) to 12.5 mg BID, 25 mg BID, 12.5 mg QD, 50 mg QD, 100 mg QD, or placebo. After a review of interim clinical data, the 2 lowest dose levels (12.5 mg QD and 12.5 mg BID) were stopped for future randomization due to a lack of consistent meaningful reduction of blood pressure, but the patients randomized to that point remained in the study through completion. Thus, after the review of interim clinical data, subjects were randomized into 4 equal treatment groups (1:1:1:1) to 25 mg BID, 50 mg QD, 100 mg QD, or placebo.
For Part 2, 36 enrolled subjects ≥18 years of age were randomized (5:1) to either 100 mg QD Compound A HBr or placebo such that the Compound A HBr treatment group consisted of approximately 30 subjects and the placebo treatment group will consist of approximately 6 subjects.
Subjects orally administered the assigned study drug (Compound A HBr or placebo) according to the assigned dosing regimen for 8 weeks beginning on Study Day 1. All subjects in Part 1 (regardless of dosing group) received BID dosing to preserve the integrity of the blind; active drug is administered as the morning dose for all QD dose groups. Subjects returned to the research facility or were seen by the clinical investigator or approved home health care professional at the end of Study Weeks 1, 2, 3, 4, 5, 6, 7, and 8 (±2 days) for protocol-defined efficacy and safety assessments and procedures, assessment of adverse events (AEs), and confirmation of compliance with study drug usage. Subjects also completed a telephone visit and blood pressure (BP) check at home approximately 3 days post last dose of study drug. Subjects attended up to 14 full clinic visits, including a pre-Screening visit, a Screening/start of Placebo Run-in visit, a second visit during Placebo Run-in, a clinic visit to initiate the ABPM procedure, a Randomization visit, 8 weekly visits during double-blind treatment, and an end-of-study visit scheduled 4 weeks after the last study treatment for final efficacy and safety assessments.
An automated oscillometric sphygmomanometer device was used to measure the subjects' systolic and diastolic blood pressure in office after approximately 5 minutes of rest in the seated position.
The primary endpoint is the change in office-measured (mean of last 2 of 5 unattended measurements using an automated oscillometric sphygmomanometer device after approximately 5 minutes of rest in the seated position) systolic blood pressure (SBP) from baseline to the end of Study Week 8.

[2] = tested on: plasma aldosterone concentrations (PACs); assay: Sodium-depleted cynomolgus monkey model; format: in vivo; conditions: single oral administration
Protocol: A sodium-depleted cynomolgus monkey model with secondary hyperaldosteronism was performed to evaluate the effect of Compound A on plasma aldosterone concentrations (PACs). The model used a low-sodium diet and 3 doses of 5 mg/kg furosemide. Two animals each were assigned to 6 groups consisting of a vehicle group and 5 Compound A (free base) groups (0.3, 1, 3, 10, and 30 mg/kg). Six crossovers were performed so that every animal was assigned to each group. Hyperaldosteronism was induced once every 3 weeks. PAC was determined by radioimmunoassay and measured during the 24 hours after Compound A administration.

[3] = biological target: T1, hERG channel (Homo sapiens, UniProt Q12809); assay: Effects on hERG current, whole-cell patch-clamp in HEK293 cells; format: cell-based
T1 construct: expressed in transfected cells; host or cells: HEK293 cells stably expressing hERG
Protocol: The effects of Compound A on the human ether-à-go-go-related gene (hERG) current were evaluated using the whole-cell patch-clamp method in human embryonic kidney (HEK293) cells stably expressing the hERG channel. Cells were treated with Compound A at concentrations of 1, 3, 10, and 30 μmol/L, positive control (E-4031) at 0.1 μmol/L, or vehicle (0.3 v/v % dimethyl sulfoxide) for 10 minutes.

[4] = pooled 50 mg QD, 100 mg QD, 12.5 mg BID and 25 mg BID cohorts (N=103)

T1 sequence (Q12809 whole entry): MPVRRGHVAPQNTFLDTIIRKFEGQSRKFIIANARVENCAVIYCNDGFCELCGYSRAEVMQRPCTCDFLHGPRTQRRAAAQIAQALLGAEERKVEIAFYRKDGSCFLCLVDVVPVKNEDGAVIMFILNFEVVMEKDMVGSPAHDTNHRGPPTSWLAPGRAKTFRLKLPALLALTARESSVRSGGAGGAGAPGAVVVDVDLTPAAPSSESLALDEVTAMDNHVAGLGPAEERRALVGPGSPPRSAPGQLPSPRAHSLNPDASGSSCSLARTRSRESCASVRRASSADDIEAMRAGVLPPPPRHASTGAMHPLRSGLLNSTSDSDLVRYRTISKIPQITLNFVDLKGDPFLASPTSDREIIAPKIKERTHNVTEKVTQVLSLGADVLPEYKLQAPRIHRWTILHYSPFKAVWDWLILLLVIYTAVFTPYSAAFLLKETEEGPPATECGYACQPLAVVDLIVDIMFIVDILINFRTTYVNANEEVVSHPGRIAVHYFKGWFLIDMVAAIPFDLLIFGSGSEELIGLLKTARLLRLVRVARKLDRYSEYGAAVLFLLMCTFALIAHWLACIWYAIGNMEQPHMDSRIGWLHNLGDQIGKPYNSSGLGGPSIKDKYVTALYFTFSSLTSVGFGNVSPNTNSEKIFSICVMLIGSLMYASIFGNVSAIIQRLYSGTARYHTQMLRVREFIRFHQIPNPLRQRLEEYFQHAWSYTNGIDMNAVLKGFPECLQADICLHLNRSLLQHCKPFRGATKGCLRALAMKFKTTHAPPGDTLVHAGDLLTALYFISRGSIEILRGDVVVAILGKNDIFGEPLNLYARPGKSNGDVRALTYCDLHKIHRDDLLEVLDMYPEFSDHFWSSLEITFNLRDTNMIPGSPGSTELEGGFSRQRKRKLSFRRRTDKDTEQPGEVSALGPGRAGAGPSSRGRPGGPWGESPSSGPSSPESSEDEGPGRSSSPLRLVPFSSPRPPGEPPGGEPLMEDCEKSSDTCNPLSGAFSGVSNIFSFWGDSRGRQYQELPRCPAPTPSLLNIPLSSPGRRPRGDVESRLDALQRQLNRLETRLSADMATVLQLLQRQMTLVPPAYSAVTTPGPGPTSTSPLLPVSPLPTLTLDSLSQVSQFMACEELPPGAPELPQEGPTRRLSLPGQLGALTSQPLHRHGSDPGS

## CC(=O)N[C@H]1CC[C@H](NC(=O)CN2CCN(c3nncc(-c4ccc(C)cc4)n3)CC2)CC1 [Compound A HBr]
[1]; 100 mg, Part-1 and Part-2 (interim) combined, N=58 active
  reduction in AOBP systolic BP, placebo-corrected, Full-analysis set: −9.9 mmHg
[1]; Age 65-79, 12.5 mg BID
  Difference from placebo in blood pressure change (LS modeled mean): −1.5 (13)
[1]; Age 65-79, 12.5 mg QD
  Difference from placebo in blood pressure change (LS modeled mean): 1.1 (10)
[1]; Age 65-79, 25 mg BID
  Difference from placebo in blood pressure change (LS modeled mean): −2.4 (15)
[1]; Age 65-79, 50 mg QD
  Difference from placebo in blood pressure change (LS modeled mean): −8.8 (13)
[1]; Age 65-79, 100 mg QD
  Difference from placebo in blood pressure change (LS modeled mean): −1.6 (18)
[1]; Age <65, 12.5 mg BID
  Difference from placebo in blood pressure change (LS modeled mean): −5.4 (6)
[1]; Age <65, 12.5 mg QD
  Difference from placebo in blood pressure change (LS modeled mean): −0.3 (10)
[1]; Age <65, 25 mg BID
  Difference from placebo in blood pressure change (LS modeled mean): −8.5 (13)
[1]; Age <65, 50 mg QD
  Difference from placebo in blood pressure change (LS modeled mean): −10.2 (13)
[1]; Age <65, 100 mg QD
  Difference from placebo in blood pressure change (LS modeled mean): −15.7 (8)
[1]; Background hypertension therapy 2 medications, 12.5 mg BID
  Difference from placebo in blood pressure change (LS modeled mean): −1.2 (7)
[1]; Background hypertension therapy 2 medications, 12.5 mg QD
  Difference from placebo in blood pressure change (LS modeled mean): 1.8 (14)
[1]; Background hypertension therapy 2 medications, 25 mg BID
  Difference from placebo in blood pressure change (LS modeled mean): 1.4 (14)
[1]; Background hypertension therapy 2 medications, 50 mg QD
  Difference from placebo in blood pressure change (LS modeled mean): −3.7 (20)
[1]; Background hypertension therapy 2 medications, 100 mg QD
  Difference from placebo in blood pressure change (LS modeled mean): −7.5 (14)
[1]; Background hypertension therapy 3+ medications, 12.5 mg BID, * p < 0.05
  Difference from placebo in blood pressure change (LS modeled mean): −12.2* (15)
[1]; Background hypertension therapy 3+ medications, 12.5 mg QD
  Difference from placebo in blood pressure change (LS modeled mean): −6.0 (9)
[1]; Background hypertension therapy 3+ medications, 25 mg BID, * p < 0.05
  Difference from placebo in blood pressure change (LS modeled mean): −15.8* (16)
[1]; Background hypertension therapy 3+ medications, 50 mg QD, * p < 0.05
  Difference from placebo in blood pressure change (LS modeled mean): −19.1* (8)
[1]; Background hypertension therapy 3+ medications, 100 mg QD
  Difference from placebo in blood pressure change (LS modeled mean): −9.6 (16)
[1]; Baseline BPsys High tertile, 12.5 mg BID
  Difference from placebo in blood pressure change (LS modeled mean): −9.7
[1]; Baseline BPsys High tertile, 12.5 mg QD
  Difference from placebo in blood pressure change (LS modeled mean): −3.6
[1]; Baseline BPsys High tertile, 25 mg BID
  Difference from placebo in blood pressure change (LS modeled mean): −5.6
[1]; Baseline BPsys High tertile, 50 mg QD, * p < 0.05
  Difference from placebo in blood pressure change (LS modeled mean): −20.6*
[1]; Baseline BPsys High tertile, 100 mg QD
  Difference from placebo in blood pressure change (LS modeled mean): −9.7
[1]; Baseline BPsys Low tertile, 12.5 mg BID
  Difference from placebo in blood pressure change (LS modeled mean): 3.8
[1]; Baseline BPsys Low tertile, 12.5 mg QD
  Difference from placebo in blood pressure change (LS modeled mean): −10.7
[1]; Baseline BPsys Low tertile, 25 mg BID
  Difference from placebo in blood pressure change (LS modeled mean): −8.8
[1]; Baseline BPsys Low tertile, 50 mg QD
  Difference from placebo in blood pressure change (LS modeled mean): −8.3
[1]; Baseline BPsys Low tertile, 100 mg QD
  Difference from placebo in blood pressure change (LS modeled mean): −11.8
[1]; Baseline BPsys Middle tertile, 12.5 mg BID
  Difference from placebo in blood pressure change (LS modeled mean): −9.7
[1]; Baseline BPsys Middle tertile, 12.5 mg QD
  Difference from placebo in blood pressure change (LS modeled mean): 9.3
[1]; Baseline BPsys Middle tertile, 25 mg BID
  Difference from placebo in blood pressure change (LS modeled mean): −4.0
[1]; Baseline BPsys Middle tertile, 50 mg QD
  Difference from placebo in blood pressure change (LS modeled mean): −11.9
[1]; Baseline BPsys Middle tertile, 100 mg QD
  Difference from placebo in blood pressure change (LS modeled mean): −11.8
[1]; Gender Female, 12.5 mg BID
  Difference from placebo in blood pressure change (LS modeled mean): −3.79 (14)
[1]; Gender Female, 12.5 mg QD
  Difference from placebo in blood pressure change (LS modeled mean): −0.2 (12)
[1]; Gender Female, 25 mg BID
  Difference from placebo in blood pressure change (LS modeled mean): −5.18 (19)
[1]; Gender Female, 50 mg QD
  Difference from placebo in blood pressure change (LS modeled mean): −11.3 (15)
[1]; Gender Female, 100 mg QD
  Difference from placebo in blood pressure change (LS modeled mean): −5.1 (18)
[1]; Gender Male, 12.5 mg BID
  Difference from placebo in blood pressure change (LS modeled mean): −13.8 (8)
[1]; Gender Male, 12.5 mg QD
  Difference from placebo in blood pressure change (LS modeled mean): −2.3 (11)
[1]; Gender Male, 25 mg BID
  Difference from placebo in blood pressure change (LS modeled mean): −9.5 (11)
[1]; Gender Male, 50 mg QD
  Difference from placebo in blood pressure change (LS modeled mean): −8.3 (13)
[1]; Gender Male, 100 mg QD
  Difference from placebo in blood pressure change (LS modeled mean): −12.4 (12)
[1]; Part-1 100 mg cohort
  reduction in AOBP systolic BP, per-protocol, placebo-corrected: −10.3 mmHg
[1]; Race Black, 12.5 mg BID
  Difference from placebo in blood pressure change (LS modeled mean): 5.57 (7)
[1]; Race Black, 12.5 mg QD
  Difference from placebo in blood pressure change (LS modeled mean): 6.75 (11)
[1]; Race Black, 25 mg BID
  Difference from placebo in blood pressure change (LS modeled mean): −10.1 (7)
[1]; Race Black, 50 mg QD
  Difference from placebo in blood pressure change (LS modeled mean): −6.9 (8)
[1]; Race Black, 100 mg QD
  Difference from placebo in blood pressure change (LS modeled mean): −7.0 (15)
[1]; Race Other, 12.5 mg BID
  Difference from placebo in blood pressure change (LS modeled mean): −14.7 (15)
[1]; Race Other, 12.5 mg QD
  Difference from placebo in blood pressure change (LS modeled mean): −7.5 (12)
[1]; Race Other, 25 mg BID
  Difference from placebo in blood pressure change (LS modeled mean): −7.2 (23)
[1]; Race Other, 50 mg QD
  Difference from placebo in blood pressure change (LS modeled mean): −12.1 (20)
[1]; Race Other, 100 mg QD
  Difference from placebo in blood pressure change (LS modeled mean): −9.2 (15)
[1]; 12.5 mg BID
  Change in AOBP BPdias, Mean (sem): −6.1 (1.8) mmHg
  Change in AOBP BPsys, Mean (sem): −11.3 (3.1) mmHg
[1]; 12.5 mg QD
  Change in AOBP BPdias, Mean (sem): −6.1 (1.8) mmHg
  Change in AOBP BPsys, Mean (sem): −5.7 (3.1) mmHg
[1]; 25 mg BID
  Change in AOBP BPdias, Mean (sem): −3.83 (2.1) mmHg
  Change in AOBP BPsys, Mean (sem): −11.0 (2.6) mmHg
[1]; 50 mg QD
  Change in AOBP BPdias, Mean (sem): −8.1 (1.7) mmHg
  Change in AOBP BPsys, Mean (sem): −13.9 (2.6) mmHg
[1]; 100 mg QD
  Change in AOBP BPdias, Mean (sem): −4.76 (1.5) mmHg
  Change in AOBP BPsys, Mean (sem): −12.2 (2.7) mmHg
[1]; doses of 50 mg and 100 mg QD
  mean reduction in AOBP measured systolic BP: −11 to −13 mmHg
[1]; [4]
  subjects with a change in BPsys >−15 mmHg: 41%
  subjects with a change in BPsys >−25 mmHg: 25%
[1]; week 8, pooled 50 mg QD, 100 mg QD, 12.5 mg BID, 25 mg BID cohorts
  subjects who achieved >−23 mmHg fall in systolic blood pressure: 25%
[1]; week 8, pooled cohorts
  mean reduction in systolic blood pressure in the highest response quartile: −33.4+1.5 mmgHg
  subjects who achieved a ≥15 mmHg fall in systolic blood pressure: 41%

## CC(=O)N[C@H]1CC[C@H](NC(=O)CN2CCN(c3nncc(-c4ccc(C)cc4)n3)CC2)CC1 [Compound A]
[2]
  effect on PAC: significantly decreased PAC
[3]
  IC50: > 30 µM
[3]; human, HEK293 cells stably expressing the hERG channel, 30 μmol/L
  inhibition at 10 min, 30 μmol/L: 27%

Reference: patent US20250099475A1, “METHODS OF TREATING HYPERTENSION BY PERIODIC SUPPRESSION OF ALDOSTERONE SYNTHASE” (Mineralys Therapeutics, Inc., priority 2022, published 2025)
